Data on 17 compounds can be found in patent publication US10450549B2, “Aryloxyphenoxypropionate tolerance in turfrgass species and use of AAD1 as a selectable marker” (Dow AgroSciences, LLC, priority 2004, dated 2019).

“And” between values parts separate entries of the source, which are not always exact repeats. Equal values may be shown once.

In one assay the target is T1, AAD1 (v1) (Sphingobium herbicidovorans, UniProt Q8KSC8).
T1 construct: made in house; host or cells: E. coli BL-21 Star (DE3), plasmid pDAB3203
T1 sequence (Q8KSC8 whole entry): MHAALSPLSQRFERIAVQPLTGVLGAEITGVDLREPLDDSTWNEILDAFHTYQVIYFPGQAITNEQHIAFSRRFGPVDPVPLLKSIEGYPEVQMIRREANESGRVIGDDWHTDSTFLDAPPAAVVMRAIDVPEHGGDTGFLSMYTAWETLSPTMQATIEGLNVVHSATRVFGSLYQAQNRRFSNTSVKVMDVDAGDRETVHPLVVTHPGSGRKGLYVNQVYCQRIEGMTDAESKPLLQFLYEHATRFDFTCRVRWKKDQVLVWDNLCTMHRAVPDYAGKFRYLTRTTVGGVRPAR
Description: Colorimetric phenol detection assay of AAD1 (v1) activity (purified enzyme or E. coli extract). In kind it is biochemical. The conditions noted are these: for A510, AAD1 / A510, AAD1 (10x): substrate 1 mM; for A510, AAD1: 1 μg purified AAD1 (v1) per 0.16 ml assay; for A510, AAD1 (10x): 10 μg purified AAD1 (v1) per 0.16 ml assay; for rate of product formation relative to 2,4-D / A510: 1 mM; for rate of product formation relative to 2,4-D: 27 μg crude recombinant AAD1 (v1) per assay; for A510 / % 2,4-D: Table 8; for A510: 27 μg crude recombinant AAD1 (v1) extract from E. coli; for % 2,4-D: relative to 2,4-D, crude AAD1 (v1) extract.

Assay [1] relates to T4 Arabidopsis homozygous for AAD1 (v3) (line AAD1.01.315.076). Description: Foliar-applied auxinic herbicides on homozygous T4 AAD1 (v3) Arabidopsis, % injury 14 DAT. The format is in vivo, Arabidopsis thaliana. The conditions noted are these: AAD1.01.315.076.T4 homozygous AAD1 plants. As to the method: (§1) The ability of AAD1 (v3) to provide resistance to other aryloxyphenoxyalkanoate auxin herbicides in transgenic Arabidopsis was determined by foliar application of various substrates described in Example 6.8. T4 generation Arabidopsis seed, homozygous for AAD1 (v3) (line AAD1.01.315.076) was stratified, and sown into selection trays much like that of Arabidopsis (Example 6.4). A transformed-control line containing PAT and the insect resistance gene Cry1F was planted in a similar manner. Seedlings were transferred to individual 3-inch pots in the greenhouse. All plants were sprayed with the use of a track sprayer set at 187 L/ha. […] All applications were formulated in 200 mM Hepes buffer (pH 7.5). Each treatment was replicated 3-4 times. Plants were evaluated at 3 and 14 days after treatment and are averaged over two experiments.

In assay [2] the test system is transformed-control line containing PAT and Cry1F. Description: Foliar-applied auxinic herbicides on control (PAT/Cry1F, wildtype) Arabidopsis, % injury 14 DAT. In kind it is in vivo, Arabidopsis thaliana. The conditions noted are these: PatCry1f - Control. As to the method:
as §1

Turning to `CC(C)COC(=O)COc1ccc(Cl)cc1Cl` [compound 190252], on AAD1 (v1) (Table 3, 15 min), the “A510, AAD1” value is reported as 0.008 and the “A510, AAD1 (10x)” value is recorded as 0.211.
The like results for `O=S(=O)([O-])OCCOc1ccc(Cl)cc1Cl.[Na+]` [sesone] were, in that order, 0.02 and 0.177.
The matching figures for `Nc1c(Cl)ccc(OCC(=O)O)c1Cl` [compound 11263526]: 0.004 and 0.069.
`O=C(O)COc1ccc(F)cc1Cl` [compound 124988]: at AAD1 (v1) (Table 3, 15 min), the “A510, AAD1” value worked out at 0.007 and the “A510, AAD1 (10x)” value worked out at 0.058.
Regarding `CC(Oc1ccc(F)cc1Cl)C(=O)O` (racemic) [(R,S)-2-chloro, 4-fluorophenoxy-proprionate], on AAD1 (v1) (Table 3, 15 min), the “A510, AAD1” value is given as 0.304 and the “A510, AAD1 (10x)” value was 2.358.
The matching figures for `CCC(Oc1ccc(Cl)cc1Cl)C(N)=O` (centres unmarked) [compound 192132]: 0.064 and 0.204.
Consider `CC(Oc1ccc(Oc2ccc(C(F)(F)F)cn2)cc1)C(=O)O` (racemic) [(R,S)- fluazifop], for which, at AAD1 (v1) (Table 4), the “A510, AAD1” value stood at 0.427 and the “A510, AAD1 (10x)” value was 2.17.
The like results for `CC(Oc1ccc(Oc2ncc(C(F)(F)F)cc2Cl)cc1F)C(=O)O` (centres unmarked) [compound 25646] were, in that order, 0.144 and 1.69.
For the compound `CC(Oc1ccc(Cl)c(N)c1Cl)C(=O)O` (racemic) [(R,S)-3-aminodichlorpop], at AAD1 (v1) (Table 3, 15 min), the “A510, AAD1” value worked out at 0.228 and the “A510, AAD1 (10x)” value is listed as 2.676. Further, at AAD1 (v1) (purified AAD1 (v1), Table 3 data, listed as 3-aminodichlorprop), the “fold better than 2,4-D as a substrate” value is ~7 fold and > 7 fold.
`O=C(O)COc1cc(F)c(Cl)cc1Cl` [5-F, 2,4-D]: on AAD1 (v1), the “rate of product formation relative to 2,4-D” value is 32%, the A510 was determined as 0.056 and the “% 2,4-D” value is 32%.
As to `O=C(O)CCCOc1ccc(Cl)cc1Cl` [compound 178577], on AAD1 (v1) (Table 3, 15 min), the “A510, AAD1” value came out at 0.003 and the “A510, AAD1 (10x)” value is 0.021.
Turning to `Oc1ccc(Cl)cc1Cl` [2,4-DCP], the “Ave % Injury 14DAT” value in assay [1] (50 g ae/ha foliar), in assay [1] (200 g ae/ha foliar), in assay [1] (800 g ae/ha foliar), in assay [1] (3200 g ae/ha foliar), in assay [2] (50 g ae/ha foliar) and in assay [2] (200 g ae/ha foliar) was 0% each time. The “Ave % Injury 14DAT” value in assay [2] (800 g ae/ha foliar) and in assay [2] (3200 g ae/ha foliar) was 0% throughout.
On to `CC(Oc1cc(F)c(Cl)c(N)c1Cl)C(=O)O` (racemic) [(R,S)-3-amino, 5-F-dichlorprop], for which, at AAD1 (v1), the “rate of product formation relative to 2,4-D” value is listed as 125%, the A510 stood at 0.221 and the “% 2,4-D” value is recorded as 125%.
As to `CC(Oc1ccc(Oc2ncc(Cl)cc2F)cc1)C(=O)O` (racemic) [(R,S)- clodinofop], on AAD1 (v1) (Table 4), the “A510, AAD1” value is recorded as 0.295 and the “A510, AAD1 (10x)” value worked out at 1.98.
Turning to `CC(Oc1ccc(Oc2ncc(Cl)cc2Cl)cc1)C(=O)O` (racemic) [(R,S)- chlorazifop], at AAD1 (v1) (Table 4), the “A510, AAD1” value is on record as 0.128 and the “A510, AAD1 (10x)” value was 1.584.
The matching figures for `CC(Oc1ccc(Oc2nc3ccc(Cl)cc3s2)cc1)C(=O)O` (racemic) [(R,S)- fenthiaprop]: 0.199 and 1.055.
For `O=C(O)COc1ccc(Cl)c2cccnc12` [Cloquintocet], at AAD1 (v1) (1 mM substrate, 1 or 10 μg enzyme), the “activity of purified AAD1 (v1) on substrate” value is listed as “no activity”. On AAD1 (v1) (Table 4), the “A510, AAD1” value was determined as 0 and the “A510, AAD1 (10x)” value stood at 0.001.
